ChEMBL document CHEMBL5528065, “Structure-Activity Relationship of a Pyrrole Based Series of PfPKG Inhibitors as Anti-Malarials” (J Med Chem, 2024)

Legend:
Plasmodium falciparum [1] = experiment: Antimalarial activity against drug-sensitive Plasmodium falciparum 3D7 infected in human erythrocytes assessed as reduction in parasitemia incubated for 72 hrs by SYBR green I and Mitotracker deep red dye based flow cytometric analysis; type: functional, organism-based
Plasmodium falciparum [2] = experiment: Antimalarial activity against Plasmodium falciparum expressing PKG T618Q mutant infected in human erythrocytes assessed as reduction in parasitemia incubated for 72 hrs by SYBR green I and Mitotracker deep red dye based flow cytometric analysis; type: functional, organism-based; settings: Plasmodium falciparum, 72 h
Plasmodium berghei = experiment: Antimalarial activity against Plasmodium berghei sporozoites expressing Luciferase infected in human HepG2 cells assessed as reduction in parasite growth incubated for 48 hrs by ONE-Glo luciferase assay; type: functional, organism-based
[3] = Inhibition of recombinant Plasmodium falciparum PKG using FAM-PKA peptide as fluorescent substrate preincubated for 15 mins followed by substrate addition measured after 1 hr by fluorescence polarization based IMAP assay
Homo sapiens = species on record: Homo sapiens; experiment: Inhibition of human PKG using FAM-IP3R peptide as fluorescent substrate at 10 uM preincubated for 15 mins followed by substrate addition measured after 1 hr by fluorescence polarization based IMAP assay relative to control; settings: time 75.0 min
[4] = Plasmodium falciparum, 3D7, 72 h
[5] = Plasmodium berghei, HepG2, 48 h

SMILES | EC50 (Plasmodium falciparum [1]; [4]) | EC50 (Plasmodium falciparum [2]) | EC50 (Plasmodium berghei; [5]) | IC50 [3] | pIC50 [3] | inhibition (Homo sapiens) | EC50 (Plasmodium falciparum [1]) | EC50 (Plasmodium berghei)
CN1CCC(c2cc(-c3ccncc3F)c(-c3ccc(F)cc3)[nH]2)CC1.Cl.Cl | 300 nM | 5220 nM | 780 nM | 49 nM | 7.72 | 18% |  | 
CN1CCC(c2cc(-c3ccncc3C(N)=O)c(-c3ccc(F)cc3)[nH]2)CC1.Cl.Cl | > 20000 nM |  |  | 4910 nM | 5.31 | 15% |  | 
CN1CCC(c2cc(-c3ccncc3)c(-c3ccc(C(F)(F)F)cc3)[nH]2)CC1.Cl.Cl | 530 nM | 800 nM | 2600 nM | 329 nM | 6.94 | -2% |  | 
CC(O)c1cc(-c2cc(C3CCN(C)CC3)[nH]c2-c2ccc(F)cc2)ccn1.Cl.Cl (stereo not given) | 3350 nM | 8320 nM | > 10000 nM | 10500 nM | 4.98 | 0.5% |  | 
C=Cc1c(C2CCN(C)CC2)[nH]c(-c2ccc(F)cc2)c1-c1ccncc1.CC(=O)O | 1080 nM | 1170 nM | 410 nM | 246 nM | 6.61 | -1% |  | 
CC(=O)O.CN1CCC(c2cc(-c3ccnc(C#N)c3)c(-c3ccc(F)cc3)[nH]2)CC1 | 420 nM | 3730 nM | 2800 nM | 95 nM | 7.02 | 9% |  | 
COc1ccc(-c2[nH]c(C3CCN(C)CC3)cc2-c2ccncc2)cc1.Cl.Cl | 230 nM | 1090 nM | 240 nM | 30 nM | 7.2 | 6% |  | 
CN1CCC(c2cc(-c3ccnc(Br)c3)c(-c3ccc(F)cc3)[nH]2)CC1.Cl.Cl | 1720 nM | 1930 nM |  | 169 nM | 6.77 | 36% |  | 
CN1CCC(c2cc(-c3ccncc3Br)c(-c3ccc(F)cc3)[nH]2)CC1.Cl.Cl | 330 nM | 1670 nM | 340 nM | 35 nM | 7.46 | 13% |  | 
CN1CCC(c2cc(-c3ccncc3)c(-c3ccc(F)cc3)n2C)CC1.Cl.Cl | 710 nM | 690 nM | 2300 nM | 112 nM | 6.95 | 4% |  | 
CN1CCC(c2[nH]c(-c3ccc(F)cc3)c(-c3ccncc3)c2C#N)CC1.Cl.Cl | 900 nM | 2450 nM | 540 nM | 11 nM | 7.96 | 19% |  | 
CC(=O)O.CN1CCC(c2[nH]c(-c3ccc(F)cc3)c(-c3ccncc3)c2CO)CC1 | 4610 nM | 4190 nM |  | 226 nM | 6.65 | 11% |  | 
C[C@H]1CN(C)CC[C@H]1c1cc(-c2ccncc2)c(-c2ccc(F)cc2)[nH]1.Cl.Cl (racemic) |  | 660 nM | 190 nM | 10 nM | 7.89 | 35% | 30 nM | 
Cc1cnccc1-c1cc(C2CCN(C)CC2)[nH]c1-c1ccc(F)cc1.Cl.Cl | 1360 nM | 1130 nM | 590 nM | 208 nM | 6.68 | 12% |  | 
CN1CCC(c2cc(-c3ccncc3CO)c(-c3ccc(F)cc3)[nH]2)CC1.Cl.Cl | 481 nM | 6230 nM | 2400 nM | 1520 nM | 5.82 | 1% |  | 
CN1CCC(c2cc(-c3ccnc(N)c3)c(-c3ccc(F)cc3)[nH]2)CC1.Cl.Cl | 50 nM | 600 nM | 590 nM | 352 nM | 6.45 | -4% |  | 
CC(=O)O.CC(O)c1c(C2CCN(C)CC2)[nH]c(-c2ccc(F)cc2)c1-c1ccncc1 (stereo not given) | 4260 nM | 3750 nM |  | 1430 nM | 5.84 | 15% |  | 
CN1CCC(c2cc(-c3ccnc(C(N)=O)c3)c(-c3ccc(F)cc3)[nH]2)CC1.Cl.Cl | 3920 nM | > 10000 nM |  | 1810 nM | 5.74 | 14% |  | 

SMILES | EC50 (Plasmodium falciparum [1]; [4]) | EC50 (Plasmodium falciparum [2]) | EC50 (Plasmodium berghei; [5]) | IC50 [3] | pIC50 [3] | inhibition (Homo sapiens) | EC50 (Plasmodium falciparum [1]) | EC50 (Plasmodium berghei)
Cc1cc(-c2cc(C3CCN(C)CC3)[nH]c2-c2ccc(F)cc2)ccn1.Cl.Cl | 2330 nM | 960 nM | 3700 nM | 2550 nM | 5.59 | 9% |  | 
CN(C)Cc1c(C2CCN(C)CC2)[nH]c(-c2ccc(F)cc2)c1-c1ccncc1.Cl.Cl.Cl |  |  |  | 3760 nM | 5.43 | 8% |  | 
C[C@H]1C[C@H](c2cc(-c3ccncc3)c(-c3ccc(F)cc3)[nH]2)CCN1C.Cl.Cl (racemic) | 380 nM | 950 nM | 560 nM | 51 nM | 7.1 | 7% |  | 
CN1CCC(c2cc(-c3ccncc3)c(-c3ccsc3)[nH]2)CC1.Cl.Cl | 1020 nM | 1740 nM | 2400 nM | 176 nM | 6.89 | 7% |  | 
CN1CCC(c2cc(-c3ccn4nnnc4c3)c(-c3ccc(F)cc3)[nH]2)CC1.Cl.Cl | 2750 nM | 2270 nM | > 20000 nM | 11600 nM | 4.94 | 12% |  | 
CN1C[C@@H]2C(c3cc(-c4ccncc4)c(-c4ccc(F)cc4)[nH]3)[C@@H]2C1.Cl.Cl (stereo not given in full) | 640 nM | 900 nM | 670 nM | 207 nM | 6.59 | 6% |  | 
CN1CCC(c2[nH]c(-c3ccc(F)cc3)c(-c3ccncc3)c2C(N)=O)CC1.Cl.Cl | > 20000 nM |  |  | 4840 nM | 5.31 | 14% |  | 
C[C@@H]1C[C@H](c2cc(-c3ccncc3)c(-c3ccc(F)cc3)[nH]2)CCN1C.Cl.Cl (racemic) | 360 nM | 900 nM | 670 nM | 41 nM | 6.97 | 10% |  | 
CN1CCC(c2cc(-c3ccncc3Cl)c(-c3ccc(F)cc3)[nH]2)CC1.Cl.Cl | 460 nM | 3950 nM | 1440 nM | 152 nM | 7.47 | 12% |  | 
C[C@@H]1CN(C)CC[C@H]1c1cc(-c2ccncc2)c(-c2ccc(F)cc2)[nH]1.Cl.Cl (racemic) | 30 nM | 800 nM |  | 27 nM | 7.64 | 9% |  | 280 nM
CN1CCC(c2cc(-c3ccncc3C#N)c(-c3ccc(F)cc3)[nH]2)CC1.Cl.Cl | 360 nM | 4400 nM | 340 nM | 35 nM | 7.46 | 2% |  | 
CN1CCC(C)(c2cc(-c3ccncc3)c(-c3ccc(F)cc3)[nH]2)CC1.Cl.Cl | 550 nM | 1070 nM | 500 nM | 50 nM | 7.09 | 35% |  | 
CCc1c(C2CCN(C)CC2)[nH]c(-c2ccc(F)cc2)c1-c1ccncc1.Cl.Cl |  |  |  | 1610 nM | 5.79 | 12% |  | 
CN1C2CCC1CC(c1cc(-c3ccncc3)c(-c3ccc(F)cc3)[nH]1)C2.Cl.Cl (stereo not given) | 350 nM | 670 nM | 490 nM | 132 nM | 7.09 | -9% |  | 
CCOC(=O)c1c(C2CCN(C)CC2)[nH]c(-c2ccc(F)cc2)c1-c1ccncc1.Cl.Cl | 2470 nM | 1630 nM | 2600 nM | 1030 nM | 5.99 | 0% |  | 
CN1CCC(c2[nH]c(-c3ccc(F)cc3)c(-c3ccncc3)c2Br)CC1.Cl.Cl | 1550 nM | 1140 nM |  | 107 nM | 6.97 | 12% |  | 
CN1CCC(c2cc(-c3ccncc3)c(-c3ccc(F)cc3)[nH]2)CC1.Cl | 230 nM | 1020 nM | 270 nM | 31 nM | 7.61 | 6% |  | 
